Data as given in patent publication US20180370927A1, “MICROBIOCIDAL OXADIAZOLE DERIVATIVES” (SYNGENTA PARTICIPATIONS AG, priority 2015, published 2018).

Columns and labels:
[1] = system: Phakopsora pachyrhizi; test: Phakopsora pachyrhizi / soybean / leaf disc preventative (Asian soybean rust); assay type: in vivo; details: foliar, 200 ppm in the applied formulation, soybean leaf disks, assessed 12 to 14 days after application, read-out: disease control compared to untreated control leaf disks
In short: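 Soybean leaf discs on water agar were sprayed with formulated compound diluted in water, then inoculated one day later with spore suspension on the lower leaf surface. Held 24-36 h dark at 20° C., 75% RH, then 12 h light/day; percent disease control versus untreated scored 12 to 14 days after application.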

[2] = system: Puccinia recondita f. Sp. Tritici; test: Puccinia recondita f. sp. tritici / wheat / leaf disc curative (brown rust); assay type: in vivo; details: foliar, 200 ppm in the applied formulation, wheat leaf segments, curative (applied 1 day after inoculation), assessed 6 to 8 days after application, read-out: disease control compared to untreated control leaf disks
In short: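 Wheat cv. Kanzler leaf segments on agar were inoculated with spores, kept dark at 19° C, 75% RH, then sprayed with diluted formulated compound 1 day after inoculation (curative). Incubation continued at 19° C, 75% RH, 12 h light/12 h dark, with percent disease control versus untreated scored 6 to 8 days after application.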

[3] = system: Glomerella lacenarium (Colletotrichum lacenarium); test: Glomerella lacenarium (Colletotrichum lacenarium) liquid culture / cucumber / preventative (anthracnose); assay type: cell-based; details: 20 ppm in the applied formulation, liquid culture in PDB, 24° C., 3 to 4 days after application, read-out: disease control (inhibition of growth, photometric) compared to untreated control
In short: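 Cryostored conidia in potato dextrose broth added to DMSO compound solution in microtiter plates, incubated at 24° C. Growth inhibition read photometrically 3 to 4 days after application, as percent control versus untreated check; compounds tested at 20 ppm.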

[4] = system: Puccinia recondita f. Sp. Tritici; test: Puccinia recondita f. sp. tritici / wheat / leaf disc preventative (brown rust); assay type: in vivo; details: foliar, 200 ppm in the applied formulation, wheat leaf segments, preventative, assessed 7 to 9 days after application, read-out: disease control compared to untreated control leaf disks
In short: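 Wheat cv. Kanzler leaf segments on agar sprayed with formulated compound in water, inoculated with rust spores 1 day later. Incubated at 19° C, 75% rh, 12 h light/12 h dark; percent disease control versus untreated scored 7 to 9 days after application; tested at 200 ppm.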

CCON=C(C)C(=O)N(Cc1ccc(-c2noc(C(F)(F)F)n2)cc1)OC [Compound 2.12, 2-ethoxyimino-N-methoxy-N-[[4-[5-(trifluoromethyl)-1,2,4-oxadiazol-3-yl]phenyl]methyl] propanamide]
≥ 80%: pest or weed control at 200 ppm [1] | pest or weed control at 200 ppm [2] | inhibition at 20 ppm [3] | pest or weed control at 200 ppm [4]

C=CCN(Cc1ccc(-c2noc(C(F)(F)F)n2)cc1)C(=O)C(=O)N(C)C [Compound 4.25, N′-allyl-N,N-dimethyl-N′-[[4-[5-(trifluoromethyl)-1,2,4-oxadiazol-3-yl]phenyl]methyl] oxamide]
≥ 80%: pest or weed control at 200 ppm [1] | pest or weed control at 200 ppm [2] | inhibition at 20 ppm [3] | pest or weed control at 200 ppm [4]

C=CCN(Cc1ccc(-c2noc(C(F)(F)F)n2)cc1)C(=O)C(N)=O [Compound 4.26, N′-allyl-N′-[[4-[5-(trifluoromethyl)-1,2,4-oxadiazol-3-yl]phenyl]methyl] oxamide]
≥ 80%: pest or weed control at 200 ppm [1] | pest or weed control at 200 ppm [2] | inhibition at 20 ppm [3] | pest or weed control at 200 ppm [4]

CCN(Cc1ccc(-c2noc(C(F)(F)F)n2)cc1)C(=O)C(=O)N(C)C [Compound 4.27, N′-ethyl-N,N-dimethyl-N′-[[4-[5-(trifluoromethyl)-1,2,4-oxadiazol-3-yl]phenyl]methyl] oxamide]
≥ 80%: pest or weed control at 200 ppm [1] | pest or weed control at 200 ppm [2] | inhibition at 20 ppm [3] | pest or weed control at 200 ppm [4]

CCN(Cc1ccc(-c2noc(C(F)(F)F)n2)cc1)C(=O)C(N)=O [Compound 4.28, N′-ethyl-N′-[[4-[5-(trifluoromethyl)-1,2,4-oxadiazol-3-yl]phenyl]methyl] oxamide]
≥ 80%: pest or weed control at 200 ppm [1] | pest or weed control at 200 ppm [2] | inhibition at 20 ppm [3] | pest or weed control at 200 ppm [4]

CN(C)C(=O)C(=O)N(C)Cc1ccc(-c2noc(C(F)(F)F)n2)cc1 [Compound 4.29, N,N,N′-trimethyl-N'-[[4-[5-(trifluoromethyl)-1,2,4-oxadiazol-3-yl]phenyl]methyl] oxamide]
≥ 80%: pest or weed control at 200 ppm [1] | pest or weed control at 200 ppm [2] | inhibition at 20 ppm [3] | pest or weed control at 200 ppm [4]

CON(Cc1ccc(-c2noc(C(F)(F)F)n2)cc1)C(=O)C(=O)N(C)C [Compound 4.39, N′-methoxy-N,N-dimethyl-N′-[[4-[5-(trifluoromethyl)-1,2,4-oxadiazol-3-yl]phenyl]methyl] oxamide]
≥ 80%: pest or weed control at 200 ppm [1] | pest or weed control at 200 ppm [2] | inhibition at 20 ppm [3] | pest or weed control at 200 ppm [4]

CN(C(=O)C(=O)NCc1ccc(-c2noc(C(F)(F)F)n2)cc1)C1CCOC1 (stereo not drawn) [Compound 4.41, N′-methyl-N′-tetrahydrofuran-3-yl-N-[[4-[5-(trifluoromethyl)-1,2,4-oxadiazol-3-yl]phenyl]methyl] oxamide]
≥ 80%: pest or weed control at 200 ppm [1] | pest or weed control at 200 ppm [2] | inhibition at 20 ppm [3] | pest or weed control at 200 ppm [4]

CNC(=O)C(=O)NCc1ccc(-c2noc(C(F)(F)F)n2)cc1 [Compound 4.47, N-methyl-N′-[[4-[5-(trifluoromethyl)-1,2,4-oxadiazol-3-yl]phenyl]methyl] oxamide]
≥ 80%: pest or weed control at 200 ppm [1] | pest or weed control at 200 ppm [2] | inhibition at 20 ppm [3] | pest or weed control at 200 ppm [4]

CCN(CC)C(=O)C(=O)NCc1ccc(-c2noc(C(F)(F)F)n2)cc1 [Compound 4.52, N′,N′-diethyl-N-[[4-[5-(trifluoromethyl)-1,2,4-oxadiazol-3-yl]phenyl]methyl] oxamide]
≥ 80%: pest or weed control at 200 ppm [1] | pest or weed control at 200 ppm [2] | inhibition at 20 ppm [3] | pest or weed control at 200 ppm [4]

CCN(C)C(=O)C(=O)NCc1ccc(-c2noc(C(F)(F)F)n2)cc1 [Compound 4.54, N′-ethyl-N′-methyl-N-[[4-[5-(trifluoromethyl)-1,2,4-oxadiazol-3-yl]phenyl]methyl] oxamide]
≥ 80%: pest or weed control at 200 ppm [1] | pest or weed control at 200 ppm [2] | inhibition at 20 ppm [3] | pest or weed control at 200 ppm [4]

CCONC(=O)C(=O)NCc1ccc(-c2noc(C(F)(F)F)n2)cc1 [Compound 4.55, N′-ethoxy-N-[[4-[5-(trifluoromethyl)-1,2,4-oxadiazol-3-yl]phenyl]methyl] oxamide]
≥ 80%: pest or weed control at 200 ppm [1] | pest or weed control at 200 ppm [2] | inhibition at 20 ppm [3] | pest or weed control at 200 ppm [4]

CC(C)(C)NC(=O)C(=O)NCc1ccc(-c2noc(C(F)(F)F)n2)cc1 [Compound 4.56, N′-tert-butyl-N-[[4-[5-(trifluoromethyl)-1,2,4-oxadiazol-3-yl]phenyl]methyl] oxamide]
≥ 80%: pest or weed control at 200 ppm [1] | pest or weed control at 200 ppm [2] | inhibition at 20 ppm [3] | pest or weed control at 200 ppm [4]

CONC(=O)C(=O)NCc1ccc(-c2noc(C(F)(F)F)n2)cc1 [Compound 4.58, N′-methoxy-N-[[4-[5-(trifluoromethyl)-1,2,4-oxadiazol-3-yl]phenyl]methyl] oxamide]
≥ 80%: pest or weed control at 200 ppm [1] | pest or weed control at 200 ppm [2] | inhibition at 20 ppm [3] | pest or weed control at 200 ppm [4]

O=C(NCc1ccc(-c2noc(C(F)(F)F)n2)cc1)C(=O)N1CCOCC1 [Compound 4.59, 2-morpholino-2-oxo-N-[[4-[5-(trifluoromethyl)-1,2,4-oxadiazol-3-yl]phenyl]methyl] acetamide]
≥ 80%: pest or weed control at 200 ppm [1] | pest or weed control at 200 ppm [2] | inhibition at 20 ppm [3] | pest or weed control at 200 ppm [4]

CON(C)C(=O)C(=O)N(Cc1ccc(-c2noc(C(F)(F)F)n2)cc1)OC [Compound 4.65, N,N′-dimethoxy-N-methyl-N′-[[4-[5-(trifluoromethyl)-1,2,4-oxadiazol-3-yl]phenyl]methyl] oxamide]
≥ 80%: pest or weed control at 200 ppm [1] | pest or weed control at 200 ppm [2] | inhibition at 20 ppm [3] | pest or weed control at 200 ppm [4]

CCN(CC)C(=O)C(=O)N(Cc1ccc(-c2noc(C(F)(F)F)n2)cc1)OC [Compound 4.69, N,N-diethyl-N′-methoxy-N′-[[4-[5-(trifluoromethyl)-1,2,4-oxadiazol-3-yl]phenyl]methyl] oxamide]
≥ 80%: pest or weed control at 200 ppm [1] | pest or weed control at 200 ppm [2] | inhibition at 20 ppm [3] | pest or weed control at 200 ppm [4]

CCN(C)C(=O)C(=O)N(Cc1ccc(-c2noc(C(F)(F)F)n2)cc1)OC [Compound 4.73, N-ethyl-N′-methoxy-N-methyl-N′-[[4-[5-(trifluoromethyl)-1,2,4-oxadiazol-3-yl]phenyl]methyl] oxamide]
≥ 80%: pest or weed control at 200 ppm [1] | pest or weed control at 200 ppm [2] | inhibition at 20 ppm [3] | pest or weed control at 200 ppm [4]

C=CCNC(=O)C(=O)N(Cc1ccc(-c2noc(C(F)(F)F)n2)cc1)OC [Compound 4.76, N-allyl-N′-methoxy-N′-[[4-[5-(trifluoromethyl)-1,2,4-oxadiazol-3-yl]phenyl]methyl] oxamide]
≥ 80%: pest or weed control at 200 ppm [1] | pest or weed control at 200 ppm [2] | inhibition at 20 ppm [3] | pest or weed control at 200 ppm [4]

CCON(Cc1ccc(-c2noc(C(F)(F)F)n2)cc1)C(=O)C(N)=O [Compound 4.86, N′-ethoxy-N′-[[4-[5-(trifluoromethyl)-1,2,4-oxadiazol-3-yl]phenyl]methyl] oxarnide]
≥ 80%: pest or weed control at 200 ppm [1] | pest or weed control at 200 ppm [2] | inhibition at 20 ppm [3] | pest or weed control at 200 ppm [4]

CCCN(Cc1ccc(-c2noc(C(F)(F)F)n2)cc1)C(=O)C(N)=O [Compound 4.88, N′-propyl-N′-[[4-[5-(trifluoromethyl)-1,2,4-oxadiazol-3-yl]phenyl]methyl] oxamide]
≥ 80%: pest or weed control at 200 ppm [1] | pest or weed control at 200 ppm [2] | inhibition at 20 ppm [3] | pest or weed control at 200 ppm [4]

CC(C)N(Cc1ccc(-c2noc(C(F)(F)F)n2)cc1)C(=O)C(N)=O [Compound 4.89, N′-isopropyl-N′-[[4-[5-(trifluoromethyl)-1,2,4-oxadiazol-3-yl]phenyl]methyl] oxamide]
≥ 80%: pest or weed control at 200 ppm [1] | pest or weed control at 200 ppm [2] | inhibition at 20 ppm [3] | pest or weed control at 200 ppm [4]

NC(=O)C(=O)N(Cc1ccc(-c2noc(C(F)(F)F)n2)cc1)C1COC1 [Compound 4.90, N′-(oxetan-3-yl)-N′-[[4-[5-(trifluoromethyl)-1,2,4-oxadiazol-3-yl]phenyl]methyl] oxamide]
≥ 80%: pest or weed control at 200 ppm [1] | pest or weed control at 200 ppm [2] | inhibition at 20 ppm [3] | pest or weed control at 200 ppm [4]

NC(=O)C(=O)N(O)Cc1ccc(-c2noc(C(F)(F)F)n2)cc1 [Compound 4.91, N′-hydroxy-N′-[[4-[5-(trifluoromethyl)-1,2,4-oxadiazol-3-yl]phenyl]methyl] oxamide]
≥ 80%: pest or weed control at 200 ppm [1] | pest or weed control at 200 ppm [2] | inhibition at 20 ppm [3] | pest or weed control at 200 ppm [4]
